Target: Neuronal acetylcholine receptor subunit alpha-4 (Rattus norvegicus, UniProt P09483)
Sequence (P09483 whole entry): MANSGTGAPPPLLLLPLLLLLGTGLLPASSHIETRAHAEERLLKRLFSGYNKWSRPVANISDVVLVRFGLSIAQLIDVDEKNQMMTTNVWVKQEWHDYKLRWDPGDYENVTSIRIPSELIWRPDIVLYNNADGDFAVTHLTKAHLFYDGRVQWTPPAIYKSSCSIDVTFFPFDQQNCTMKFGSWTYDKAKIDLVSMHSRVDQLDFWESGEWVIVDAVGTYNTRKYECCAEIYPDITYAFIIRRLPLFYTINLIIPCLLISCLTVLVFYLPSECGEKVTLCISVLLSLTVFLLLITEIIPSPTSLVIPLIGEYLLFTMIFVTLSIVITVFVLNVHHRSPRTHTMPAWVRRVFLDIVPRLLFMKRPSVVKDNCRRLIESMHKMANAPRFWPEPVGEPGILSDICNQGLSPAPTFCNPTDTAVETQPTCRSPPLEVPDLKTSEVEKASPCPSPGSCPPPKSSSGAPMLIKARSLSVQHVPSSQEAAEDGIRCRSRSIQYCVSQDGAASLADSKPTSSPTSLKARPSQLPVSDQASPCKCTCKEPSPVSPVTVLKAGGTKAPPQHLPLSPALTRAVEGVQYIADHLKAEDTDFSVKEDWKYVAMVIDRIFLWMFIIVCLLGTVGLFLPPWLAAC

Clc1ccc(OC[C@@H]2CCN2)cn1
Ki: 0.03 nM

Source: BindingDB's records for doi:10.1126/science.279.5347.77 (Abbott Laboratories, 1998)
